Here are results for 10 compounds from patent publication US12692247B2, “Phenyl- and pyridopyrazole derivatives as inhibitors of DDR1” (Redx Pharma Limited, priority 2021, dated 2026).

Assay [1] has as its target T1, Recombinant human DDR1 (Homo sapiens, UniProt Q08345).
T1 construct: Recombinant human DDR1 (2.5 nM; aa440-876 containing a GST tag)
Kind of assay: LanthaScreen Eu Kinase Binding Assay, DDR1. The following applies: recombinant human DDR1 (2.5 nM; aa440-876, GST tag), Kinase Tracer 178 5 nM, time-resolved fluorescence, at least two independent replicates; read-out: DDR1 pIC50 (converted). Summed up:
(§1)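 GST-tagged kinase domains (DDR1 aa440-876 at 2.5 nM; DDR2 aa427-855 at 1.75 nM) were preincubated 30 min at room temperature with compound in HEPES pH 7.3 buffer. Then 1 nM Eu-anti-GST plus Tracer 178 (5 nM DDR1, 10 nM DDR2) were added; after 60 min, TR-FRET gave IC50 by four-parameter fit, ≥2 replicates.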
Background: In TR-FRET formats the signal depends on donor and acceptor labels being close together.

Assay [2] addresses T2, Recombinant human DDR2 (Homo sapiens, UniProt Q16832).
T2 construct: DDR2 (1.75 nM; aa427-855 containing a GST tag)
T2 sequence (Q16832 427-855): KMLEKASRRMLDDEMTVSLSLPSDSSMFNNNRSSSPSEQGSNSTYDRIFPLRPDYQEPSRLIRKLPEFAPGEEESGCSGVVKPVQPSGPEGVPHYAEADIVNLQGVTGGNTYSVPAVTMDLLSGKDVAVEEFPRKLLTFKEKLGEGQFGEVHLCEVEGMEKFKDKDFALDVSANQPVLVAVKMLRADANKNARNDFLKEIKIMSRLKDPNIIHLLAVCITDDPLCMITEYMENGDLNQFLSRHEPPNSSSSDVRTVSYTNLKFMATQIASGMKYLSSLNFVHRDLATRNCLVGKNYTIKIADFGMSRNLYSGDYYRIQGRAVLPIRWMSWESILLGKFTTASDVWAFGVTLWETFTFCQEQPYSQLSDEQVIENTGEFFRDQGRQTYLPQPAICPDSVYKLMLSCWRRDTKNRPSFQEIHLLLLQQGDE
Kind of assay: LanthaScreen Eu Kinase Binding Assay, DDR2. The note with it: recombinant human DDR2 (1.75 nM; aa427-855, GST tag), Kinase Tracer 178 10 nM, time-resolved fluorescence, at least two independent replicates; read-out: DDR2 pIC50 (converted). Summed up:
as §1

T1 sequence (Q08345 440-876 isoform Q08345-2): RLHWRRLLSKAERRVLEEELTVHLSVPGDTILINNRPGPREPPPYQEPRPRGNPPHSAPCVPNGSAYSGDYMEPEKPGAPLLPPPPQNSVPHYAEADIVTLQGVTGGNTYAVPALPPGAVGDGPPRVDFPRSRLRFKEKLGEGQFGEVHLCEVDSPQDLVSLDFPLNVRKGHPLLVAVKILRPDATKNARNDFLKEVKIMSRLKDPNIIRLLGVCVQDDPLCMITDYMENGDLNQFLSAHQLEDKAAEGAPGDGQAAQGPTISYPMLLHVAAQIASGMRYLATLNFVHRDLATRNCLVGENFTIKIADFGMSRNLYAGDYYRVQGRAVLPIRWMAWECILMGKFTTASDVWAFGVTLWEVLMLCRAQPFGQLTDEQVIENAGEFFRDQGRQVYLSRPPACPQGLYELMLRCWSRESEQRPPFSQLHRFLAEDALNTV

Consider `Cn1ncc2cc(Nc3cccc4ccn(CC(=O)N5CCC[C@H]5C(C)(C)O)c(=O)c34)ccc21` [Example 60, 2-[2-[(2S)-2-(1-hydroxy-1-methyl-ethyl)pyrrolidin-1-yl]-2-oxo-ethyl]-8-[(1-methylindazol-5-yl)amino]isoquinolin-1-one], for which the IC50 in assay [1] is 100 to 1000 nM; in assay [2] it was not below 1000 nM.
The matching figures for `Cn1ncc2cc(Nc3cccc4ccn(CC(=O)NCC5CC5)c(=O)c34)ccc21` [Example 16]: 10 to 100 nM and 100 to 1000 nM.
Turning to `Cn1ncc2cc(Nc3cccc4ccn(CC(=O)N5CCCC5)c(=O)c34)ccc21` [Example 94, 8-[(1-methyl-1H-indazol-5-yl)amino]-2-[2-oxo-2-(pyrrolidin-1-yl)ethyl]-1,2-dihydroisoquinolin-1-one], the IC50 in assay [1] is 100 to 1000 nM; in assay [2], not below 1000 nM.
For `Cn1ncc2cc(Nc3cccc4ccn(CC(=O)N[C@@H](C5CC5)C(F)(F)F)c(=O)c34)ccc21` [Example 57, N-[(1S)-1-cyclopropyl-2,2,2-trifluoro-ethyl]-2-[8-[(1-methylindazol-5-yl)amino]-1-oxo-2-isoquinolyl]acetamide], in that order: less than 10 nM and 10 to 100 nM.
For `COC(=O)c1cncc(NC(=O)Cn2ccc3cccc(Nc4ccc5c(cnn5C)c4)c3c2=O)c1` [Example 63], in that order: 10 to 100 nM and 10 to 100 nM.
In the case of `Cn1ncc2cc(Nc3cc(F)cc4ccn(CC(=O)NCC(F)(F)F)c(=O)c34)ccc21` [Example 47, 2-[6-fluoro-8-[(1-methylindazol-5-yl)amino]-1-oxo-2-isoquinolyl]-N-(2,2,2-trifluoroethyl) acetamide], the IC50 in assay [1] is 100 to 1000 nM; in assay [2] it was not below 1000 nM.
Turning to `Cc1n[nH]c2cc(Nc3cccc4ccn(CC(=O)Nc5cccc(C(F)(F)F)c5)c(=O)c34)ccc12` [Example 159, 2-[8-[(3-methyl-1H-indazol-6-yl)amino]-1-oxo-2-isoquinolyl]-N-[3-(trifluoromethyl)phenyl]acetamide], the IC50 in assay [1] was 10 to 100 nM; in assay [2], 100 to 1000 nM.
For `Cn1ncc2cc(Nc3cccc4ccn(CC(=O)NCC56CCCN5CCC6)c(=O)c34)ccc21` [Example 138], in that order: not below 1000 nM and not below 1000 nM.
The matching figures for `CC(NC(=O)Cn1ccc2cccc(Nc3ccc4c(cnn4C)c3)c2c1=O)C(F)(F)F` (centres unmarked) [Example 12, 2-[8-[(1-methylindazol-5-y)amino]-1-oxo-2-isoquinolyl]-N-(2,2,2-trifluoro-1-methyl-ethyl)acetamide]: 10 to 100 nM and 10 to 100 nM.
The matching figures for `COC(=O)C1CCN(C(=O)Cn2ccc3cccc(Nc4ccc5c(cnn5C)c4)c3c2=O)C1` (centres unmarked) [Example 73, methyl 1-[2-[8-[(1-methylindazol-5-yl)amino]-1-oxo2-isoquinolyl]acetyl]pyrrolidine-3-carboxylate]: 100 to 1000 nM and not below 1000 nM.
